Source: ChEMBL document CHEMBL1201862, “PubChem BioAssay data set” (2004)
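Cultured in 96-well plates, cells were exposed to test compound for 48 hours across five concentrations. At the GI50, growth is halved.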 The source made the active and inactive calls. Rule as the data show it: active = GI50 up to about 1.1 µM and inactive = higher.

Assays:
Assay in all cases: growth of human tumour cells (NCI), 48 h
786-0 = tested on: 786-0
A549 = tested on: A549
ACHN = tested on: ACHN
BT-549 = tested on: BT-549
CAKI-1 = tested on: CAKI-1
CCRF-CEM = tested on: CCRF-CEM
COLO 205 = tested on: COLO 205
DU-145 = tested on: DU-145
EKVX = tested on: EKVX
HCC 2998 = tested on: HCC 2998
HCT-116 = tested on: HCT-116
HCT-15 = tested on: HCT-15
HL-60 = tested on: HL-60
HOP-62 = tested on: HOP-62
HT-29 = tested on: HT-29
Hs-578T = tested on: Hs-578T
IGROV-1 = tested on: IGROV-1
K562 = tested on: K562
KM12 = tested on: KM12
M14 = tested on: M14
MCF7 = tested on: MCF7
MDA-MB-231 = tested on: MDA-MB-231
MDA-MB-435 = tested on: MDA-MB-435
MOLT-4 = tested on: MOLT-4
Malme-3M = tested on: Malme-3M
NCI-H226 = tested on: NCI-H226
NCI-H23 = tested on: NCI-H23
NCI-H460 = tested on: NCI-H460
NCI-H522 = tested on: NCI-H522
NCI/ADR-RES = tested on: NCI/ADR-RES
OVCAR-3 = tested on: OVCAR-3
OVCAR-4 = tested on: OVCAR-4
OVCAR-5 = tested on: OVCAR-5
OVCAR-8 = tested on: OVCAR-8
PC-3 = tested on: PC-3
RPMI-8226 = tested on: RPMI-8226
RXF 393 = tested on: RXF 393
SF-268 = tested on: SF-268
SF-295 = tested on: SF-295
SK-MEL-28 = tested on: SK-MEL-28
SK-MEL-2 = tested on: SK-MEL-2
SK-MEL-5 = tested on: SK-MEL-5
SK-OV-3 = tested on: SK-OV-3
SN12C = tested on: SN12C
SNB-19 = tested on: SNB-19
SNB-75 = tested on: SNB-75
SW-620 = tested on: SW-620
T47D = tested on: T47D
TK-10 = tested on: TK-10
U-251 = tested on: U-251
UACC-257 = tested on: UACC-257
UACC-62 = tested on: UACC-62
UO-31 = tested on: UO-31
A498 = tested on: A498
HOP-92 = tested on: HOP-92
LOX IMVI = tested on: LOX IMVI
MDA-N = tested on: MDA-N
SF-539 = tested on: SF-539
SR = tested on: SR

For `c1ccc(-c2cn3nc(N4CCOCC4)sc3n2)cc1`, the GI50 (786-0) was 37.4 µM (inactive), the GI50 (A549) was > 100 µM (inactive) and the GI50 (ACHN) was > 100 µM (inactive). For the same compound, the GI50 (BT-549) was > 100 µM (inactive), the GI50 (CAKI-1) was 16.6 µM (inactive) and the GI50 (CCRF-CEM) was > 100 µM (inactive). For the same compound, the GI50 (COLO 205) was > 100 µM (inactive), the GI50 (DU-145) was > 100 µM (inactive) and the GI50 (EKVX) was > 100 µM (inactive). For the same compound, the GI50 (HCC 2998) was > 100 µM (inactive), the GI50 (HCT-116) was > 100 µM (inactive) and the GI50 (HCT-15) was over 100 µM. For the same compound, the GI50 (HL-60) was > 100 µM (inactive), the GI50 (HOP-62) was 53.7 µM (inactive) and the GI50 (HT-29) was > 100 µM (inactive). The GI50 (Hs-578T) was 60 µM (inactive), the GI50 (IGROV-1) was 62.4 µM (inactive) and the GI50 (K562) was > 100 µM (inactive). For the same compound, the GI50 (KM12) was > 100 µM (inactive), the GI50 (M14) was > 100 µM (inactive) and the GI50 (MCF7) was > 100 µM (inactive). The GI50 (MDA-MB-231) was 85.9 µM (inactive), the GI50 (MDA-MB-435) was > 100 µM (inactive) and the GI50 (MOLT-4) was > 100 µM (inactive). For the same compound, the GI50 (Malme-3M) was > 100 µM (inactive), the GI50 (NCI-H226) was > 100 µM (inactive) and the GI50 (NCI-H23) was > 100 µM (inactive). For the same compound, the GI50 (NCI-H460) was 54.1 µM (inactive), the GI50 (NCI-H522) was > 100 µM (inactive) and the GI50 (NCI/ADR-RES) was > 100 µM (inactive). The GI50 (OVCAR-3) was > 100 µM (inactive), the GI50 (OVCAR-4) was 34 µM (inactive) and the GI50 (OVCAR-5) was > 100 µM (inactive). The GI50 (OVCAR-8) was 31.8 µM (inactive), the GI50 (PC-3) was > 100 µM (inactive) and the GI50 (RPMI-8226) was > 100 µM (inactive). The GI50 (RXF 393) was 83.6 µM (inactive), the GI50 (SF-268) was > 100 µM (inactive) and the GI50 (SF-295) was > 100 µM (inactive). The GI50 (SK-MEL-28) was > 100 µM (inactive), the GI50 (SK-MEL-2) was > 100 µM (inactive) and the GI50 (SK-MEL-5) was > 100 µM (inactive). For the same compound, the GI50 (SK-OV-3) was > 100 µM (inactive), the GI50 (SN12C) was 8.49 µM (inactive) and the GI50 (SNB-19) was > 100 µM (inactive). For the same compound, the GI50 (SNB-75) was 38.7 µM (inactive), the GI50 (SW-620) was > 100 µM (inactive) and the GI50 (T47D) was 56.8 µM (inactive). For the same compound, the GI50 (TK-10) was > 100 µM (inactive), the GI50 (U-251) was 48.6 µM (inactive) and the GI50 (UACC-257) was > 100 µM (inactive). For the same compound, the GI50 (UACC-62) was > 100 µM (inactive) and the GI50 (UO-31) was > 100 µM (inactive).
With `CCOc1cc(/C=N\O)cc(/C=N/O)c1O` the GI50 (786-0) was 49.4 µM (inactive), the GI50 (A498) was 18 µM (inactive) and the GI50 (A549) was 29.5 µM (inactive). The GI50 (ACHN) was 22.7 µM (inactive), the GI50 (CAKI-1) was 21.9 µM (inactive) and the GI50 (CCRF-CEM) was 35.3 µM (inactive). The GI50 (COLO 205) was 22.8 µM (inactive), the GI50 (DU-145) was 68.5 µM (inactive) and the GI50 (EKVX) was 33.3 µM (inactive). The GI50 (HCC 2998) was 56.5 µM (inactive), the GI50 (HCT-116) was 38.5 µM (inactive) and the GI50 (HCT-15) was 31.3 µM. The GI50 (HL-60) was 18.1 µM (inactive), the GI50 (HOP-62) was 37.1 µM (inactive) and the GI50 (HOP-92) was 23.8 µM (inactive). The GI50 (HT-29) was 29.4 µM (inactive), the GI50 (Hs-578T) was 31.3 µM (inactive) and the GI50 (K562) was 61.5 µM (inactive). For the same compound, the GI50 (KM12) was 54.3 µM (inactive), the GI50 (LOX IMVI) was 22.2 µM (inactive) and the GI50 (M14) was 44 µM (inactive). The GI50 (MCF7) was 9.68 µM (inactive), the GI50 (MDA-MB-231) was 69.8 µM (inactive) and the GI50 (MDA-MB-435) was 32.3 µM (inactive). For the same compound, the GI50 (MDA-N) was 35.6 µM (inactive), the GI50 (MOLT-4) was 29.1 µM (inactive) and the GI50 (Malme-3M) was 37.2 µM (inactive). For the same compound, the GI50 (NCI-H226) was 37.9 µM (inactive), the GI50 (NCI-H23) was 30 µM (inactive) and the GI50 (NCI-H460) was 31.9 µM (inactive). For the same compound, the GI50 (NCI/ADR-RES) was 41.7 µM (inactive), the GI50 (OVCAR-3) was 31.1 µM (inactive) and the GI50 (OVCAR-4) was 42.6 µM (inactive). For the same compound, the GI50 (OVCAR-5) was 50.6 µM (inactive), the GI50 (OVCAR-8) was 25.2 µM (inactive) and the GI50 (PC-3) was 28.2 µM (inactive). For the same compound, the GI50 (RPMI-8226) was 24.7 µM (inactive), the GI50 (RXF 393) was 14.5 µM (inactive) and the GI50 (SF-268) was 22.6 µM (inactive). The GI50 (SF-295) was 38.3 µM (inactive), the GI50 (SF-539) was 24 µM (inactive) and the GI50 (SK-MEL-28) was 22.8 µM (inactive). For the same compound, the GI50 (SK-MEL-2) was 18.1 µM (inactive), the GI50 (SK-MEL-5) was 17.7 µM (inactive) and the GI50 (SK-OV-3) was 59.4 µM (inactive). The GI50 (SN12C) was 51.6 µM (inactive), the GI50 (SNB-19) was 39.2 µM (inactive) and the GI50 (SNB-75) was 23.1 µM (inactive). For the same compound, the GI50 (SR) was 29.3 µM (inactive), the GI50 (SW-620) was 34.6 µM (inactive) and the GI50 (T47D) was 21.9 µM (inactive). The GI50 (TK-10) was > 100 µM (inactive), the GI50 (U-251) was 25.6 µM (inactive) and the GI50 (UACC-257) was 47.2 µM (inactive). The GI50 (UACC-62) was 50.7 µM (inactive) and the GI50 (UO-31) was 1.2 µM (inactive).
